Results reported in patent publication US8791132B2, “Compounds and methods for treatment of hypertension” (Medivation Technologies, Inc., priority 2011, dated 2014).
Read-outs that look alike come from different tables or passages of the source.

Tests used:
[1] = biological target: T1, human recombinant adrenergic α2B receptor (Homo sapiens, UniProt P18089); assay: Radioligand binding, adrenergic α2B ([3H]Rauwolscine); conditions: for Percentage inhibition of ligand binding, Adrenergic α2B / Percentage inhibition of ligand binding, Adrenergic α2B (0.03 μM): 0.03 µM
T1 construct: expressed in transfected cells; host or cells: CHO-K1
T1 sequence (P18089 1-450): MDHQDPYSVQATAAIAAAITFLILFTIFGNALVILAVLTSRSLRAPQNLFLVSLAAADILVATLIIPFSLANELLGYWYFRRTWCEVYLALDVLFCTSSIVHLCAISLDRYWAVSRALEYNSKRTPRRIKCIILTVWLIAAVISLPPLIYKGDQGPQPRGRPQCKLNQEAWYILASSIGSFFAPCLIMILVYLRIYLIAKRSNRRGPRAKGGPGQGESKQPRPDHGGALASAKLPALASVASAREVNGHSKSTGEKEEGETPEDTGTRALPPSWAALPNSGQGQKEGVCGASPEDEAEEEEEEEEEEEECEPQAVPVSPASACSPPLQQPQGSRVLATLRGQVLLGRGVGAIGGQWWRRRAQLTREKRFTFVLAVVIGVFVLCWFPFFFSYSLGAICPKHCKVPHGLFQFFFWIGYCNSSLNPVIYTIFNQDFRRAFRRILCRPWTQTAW
Summary of the method: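 Receptor expressed in CHO-K1 cells, assayed in 50 mM Tris-HCl pH 7.4 with 12.5 mM MgCl2, 1 mM EDTA and 0.2% BSA. Compounds were incubated with 2.5 nM [3H]Rauwolscine for 60 min at 25° C; 10 μM Prazosin defined non-specific binding. Filter counting gave percent inhibition of specific binding.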

[2] = biological target: T2, rat adrenergic α1B receptor (Rattus norvegicus, UniProt P15823); assay: Radioligand binding, adrenergic α1B ([3H]Prazosin)
T2 construct: rat adrenergic α1B receptor obtained from Wistar Rat liver; from tissue; host or cells: Wistar rat liver
T2 sequence (P15823 1-515): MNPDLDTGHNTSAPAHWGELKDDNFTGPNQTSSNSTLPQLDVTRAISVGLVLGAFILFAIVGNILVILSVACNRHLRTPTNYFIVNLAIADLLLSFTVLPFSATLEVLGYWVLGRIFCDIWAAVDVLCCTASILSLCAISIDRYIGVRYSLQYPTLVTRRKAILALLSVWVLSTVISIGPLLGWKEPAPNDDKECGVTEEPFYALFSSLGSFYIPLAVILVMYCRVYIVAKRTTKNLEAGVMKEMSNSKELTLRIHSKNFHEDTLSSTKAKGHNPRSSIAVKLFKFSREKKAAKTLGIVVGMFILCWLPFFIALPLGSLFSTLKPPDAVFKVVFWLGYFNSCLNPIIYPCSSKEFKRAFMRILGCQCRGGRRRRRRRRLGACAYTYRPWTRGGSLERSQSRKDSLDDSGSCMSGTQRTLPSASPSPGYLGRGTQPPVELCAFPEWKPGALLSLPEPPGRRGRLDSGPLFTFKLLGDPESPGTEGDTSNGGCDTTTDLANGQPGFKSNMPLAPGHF
Summary of the method: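 Rat α1B receptor from Wistar rat liver was incubated with 0.25 nM [3H]prazosin for 60 min at 25 °C in 50 mM Tris-HCl, pH 7.4, 0.5 mM EDTA. Non-specific binding was defined with 10 μM phentolamine. Bound radioligand was measured by filtration and counting, reported as percent inhibition of specific binding.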

[3] = biological target: T3, human recombinant adrenergic α2A receptor (Homo sapiens, UniProt P08913); assay: Radioligand binding, adrenergic α2A ([3H]MK-912); conditions: for Percentage inhibition of ligand binding, Adrenergic α2A / Percentage inhibition of ligand binding, Adrenergic α2A (0.1 μM): 0.1 µM
T3 construct: expressed in transfected cells; host or cells: insect Sf9 cells
T3 sequence (P08913 1-465): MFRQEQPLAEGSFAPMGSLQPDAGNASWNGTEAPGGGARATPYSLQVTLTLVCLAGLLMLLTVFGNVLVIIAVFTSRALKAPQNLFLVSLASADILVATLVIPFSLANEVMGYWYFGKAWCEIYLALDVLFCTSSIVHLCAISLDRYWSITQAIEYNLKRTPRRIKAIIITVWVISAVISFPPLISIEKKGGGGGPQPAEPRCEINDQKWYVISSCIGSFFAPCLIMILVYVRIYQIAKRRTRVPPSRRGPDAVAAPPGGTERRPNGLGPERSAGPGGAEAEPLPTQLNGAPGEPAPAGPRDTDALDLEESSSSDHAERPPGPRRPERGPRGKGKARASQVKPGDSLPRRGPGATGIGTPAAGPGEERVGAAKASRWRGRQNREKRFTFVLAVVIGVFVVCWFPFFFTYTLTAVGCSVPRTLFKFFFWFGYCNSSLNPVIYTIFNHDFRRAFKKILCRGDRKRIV
Summary of the method: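 Receptor expressed in Sf9 cells, in 50 mM Tris-HCl pH 7.4, 12.5 mM MgCl2, 2 mM EDTA; compounds incubated with 1 nM [3H]MK-912 for 60 min at 25 °C.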

[4] = compound at 0.03 μM, [3H]Rauwolscine, repeat assays, each datapoint shown
[5] = compound at 0.1 μM, [3H]Prazosin, repeat assays, each datapoint shown, 0.1 µM
[6] = compound at 0.1 μM, [3H]MK-912, repeat assays, each datapoint shown
[7] = 0.03 μM compound, read-out: Percentage inhibition of ligand binding, Adrenergic α2B
[8] = 0.1 μM compound, read-out: Percentage inhibition of ligand binding, Adrenergic α1B
[9] = 0.1 μM compound, read-out: Percentage inhibition of ligand binding, Adrenergic α2A
[10] = compound at 0.03 μM, [3H]Rauwolscine, repeat assays, each datapoint shown, read-out: Percentage inhibition of ligand binding, Adrenergic α2B
[11] = compound at 0.1 μM, [3H]Prazosin, repeat assays, each datapoint shown, read-out: Percentage inhibition of ligand binding, Adrenergic α1B
[12] = read-out: Percentage inhibition of ligand binding, Adrenergic α2B (0.03 μM), compound at 0.03 μM, [3H]Rauwolscine, repeat datapoints each shown
[13] = read-out: Percentage inhibition of ligand binding, Adrenergic α1B (0.1 μM), compound at 0.1 μM, [3H]Prazosin, repeat datapoints each shown
[14] = read-out: Percentage inhibition of ligand binding, Adrenergic α2A (0.1 μM), compound at 0.1 μM, [3H]MK-912, repeat datapoints each shown
[15] = compound at 0.1 μM, [3H]MK-912, repeat assays, each datapoint shown, read-out: Percentage inhibition of ligand binding, Adrenergic α2A
[16] = compound at 0.03 μM, [3H]Rauwolscine, repeat datapoints each shown
[17] = compound at 0.1 μM, [3H]Prazosin, repeat datapoints each shown, 0.1 µM
[18] = compound at 0.1 μM, [3H]MK-912, repeat datapoints each shown

## CN1CCc2c(c3cccc(Cl)c3n2CC(C)(O)c2cccnc2)C1 (single isomer, unassigned) [57b, 1-(6-chloro-2-methyl-1,2,3,4-tetrahydro-pyrido[4,3-b]indol-5-yl)-2-pyridin-3-yl-propan-2-ol]
[1]; [4]
  Percentage inhibition of ligand binding, Adrenergic α2B: 84%
[2]; [5]
  Percentage inhibition of ligand binding, Adrenergic α1B: 9%
[3]; [6]
  Percentage inhibition of ligand binding, Adrenergic α2A: 24%

## Cc1ccc2c(n1)c1c(n2CC(C)(O)c2cccnc2)CCN2CCCC12 (stereo not shown) [II-17]
[1]; [7]
  inhibition at 0.03 µM: 7%
[2]; [8]
  inhibition at 0.1 µM: 8%
[3]; [9]
  inhibition at 0.1 µM: 4%

## OCCN1CCc2c(c3cc(Cl)ccc3n2CC(O)c2cccnc2)C1 (single isomer, unassigned) [II-94b]
[1]; 0.03 μM compound
  Percentage inhibition of ligand binding, Adrenergic α2B: 24%
[2]; 0.1 μM compound, 0.1 µM
  Percentage inhibition of ligand binding, Adrenergic α1B: 7%
[3]; 0.1 μM compound
  Percentage inhibition of ligand binding, Adrenergic α2A: −5%

## Cc1ccc2c(c1)c1c(n2CC(C)(O)c2cccnc2)CN(C)CC1 (single isomer, unassigned) [14a, 1-(2,6-dimethyl-1,2,3,4-tetrahydro-β-carbolin-9-yl)-2-pyridin-3-yl-propan-2-ol]
[1]; [4]
  Percentage inhibition of ligand binding, Adrenergic α2B: 98%
[1]; [10]
  inhibition at 0.03 µM: 97%
[1]; read-out: Ki α2B
  Ki: 1.92 nM
[2]; compound at 0.03 μM, [3H]Prazosin, repeat assays, each datapoint shown, read-out: Percentage inhibition of ligand binding, Adrenergic α1B
  inhibition at 0.03 µM: 17%
[2]; [5]
  Percentage inhibition of ligand binding, Adrenergic α1B: 44%
[2]; [11]
  inhibition at 0.1 µM: 43%
[3]
  Ki: 123 nM

## Cc1ccc2c(c1)c1c(n2CC(N=[N+]=[N-])c2cnccn2)CCN2CCCC12 (stereo not shown) [II-261, 6-(2-azido-2-pyrazin-2-yl-ethyl)-9-methyl-2,3,4,5,6,10c-hexahydro-1H-3a,6-diaza-cyclopenta[c]fluorene]
[1]; [12]
  inhibition at 0.03 µM: 103%
[2]; [13]
  inhibition at 0.1 µM: 71%
[3]; [14]
  inhibition at 0.1 µM: 70%

## CN1CCc2c(c3ccc(C(F)(F)F)cc3n2CC(O)c2cccnc2)C1 (single isomer, unassigned) [40a]
[1]; [10]
  inhibition at 0.03 µM: 27%
[2]; [5]
  Percentage inhibition of ligand binding, Adrenergic α1B: 2%
[3]; [15]
  inhibition at 0.1 µM: 7%

## Cc1ccc2c(c1)c1c(n2CC(N=[N+]=[N-])c2ccc(F)cc2F)CCN(C)CC1 (single isomer, unassigned) [V-21b, 6-(2-azido-2-(2,4-difluorophenyl)ethyl)-3,9-dimethyl-1,2,3,4,5,6-hexahydroazepino[4,5-b]indole]
[1]; [16]
  Percentage inhibition of ligand binding, Adrenergic α2B (0.03 μM): 93%
[2]; [17]
  Percentage inhibition of ligand binding, Adrenergic α1B (0.1 μM): 34%
[3]; [18]
  Percentage inhibition of ligand binding, Adrenergic α2A (0.1 μM): 43%

## CC(O)(Cn1c2c(c3cc(Cl)ccc31)CNCC2)c1cccnc1 (single isomer, unassigned) [175b]
[1]; [16]
  Percentage inhibition of ligand binding, Adrenergic α2B (0.03 μM): 4%
[2]; [17]
  Percentage inhibition of ligand binding, Adrenergic α1B (0.1 μM): 4%
[3]; [18]
  Percentage inhibition of ligand binding, Adrenergic α2A (0.1 μM): 7%

## Cc1ccc2c(c1)c1c(n2CC(O)c2ccncc2)CC2CCC1N2C (stereo not shown) [compound 73]
[1]; [10]
  inhibition at 0.03 µM: 61%
[2]; [11]
  inhibition at 0.1 µM: 17%
[3]; [15]
  inhibition at 0.1 µM: 15%

## Cc1ccc2c(c1)c1c(n2CC(C)(O)c2ccc[n+]([O-])c2)CCN(C)C1 (single isomer, unassigned) [56b]
[1]; [4]
  Percentage inhibition of ligand binding, Adrenergic α2B: 28%
[2]; [5]
  Percentage inhibition of ligand binding, Adrenergic α1B: 6%
[3]; [6]
  Percentage inhibition of ligand binding, Adrenergic α2A: 17%

## Cc1cnc2c(c1)c1c(n2CC(O)c2ccc(C)nc2)CCN(C)C1 (single isomer, unassigned) [II-100b]
[1]; 0.03 μM compound
  Percentage inhibition of ligand binding, Adrenergic α2B: 1%
[2]; 0.1 μM compound
  Percentage inhibition of ligand binding, Adrenergic α1B: 24%
[3]; 0.1 μM compound
  Percentage inhibition of ligand binding, Adrenergic α2A: 4%

## Cc1ccc2c(c1)c1c(n2CC(NC2CCC2)c2ccncc2)CCN(C)C1 (stereo not shown) [II-13, cyclobutyl-[2-(2,8-dimethyl-1,2,3,4-tetrahydro-pyrido[4,3-b]indol-5-yl)-1-pyridin-4-yl-ethyl]-amine]
[1]; [7]
  inhibition at 0.03 µM: 73%
[2]; [8]
  inhibition at 0.1 µM: 9%
[3]; [9]
  inhibition at 0.1 µM: 9%

## Cc1ccc2c(c1)c1c(n2CC(CO)c2ccncc2)CCN(C)C1 (stereo not shown) [II-225]
[1]; [12]
  inhibition at 0.03 µM: 8%
[2]; [13]
  inhibition at 0.1 µM: 9%
[3]; [14]
  inhibition at 0.1 µM: -1%

## Cc1ccc2c(c1)c1c(n2CC(O)c2ccncc2)CN2CCC1C2 (stereo not shown) [II-69]
[1]; [7]
  inhibition at 0.03 µM: 14%
[2]; [8]
  inhibition at 0.1 µM: 45%
[3]; [9]
  inhibition at 0.1 µM: 11%

## Cc1ccc2c(c1)c1c(n2CC(O)c2ccncc2)CC2CCCCN2C1 (racemic) [75a]
[1]; [4]
  Percentage inhibition of ligand binding, Adrenergic α2B: 77%
[2]; [5]
  Percentage inhibition of ligand binding, Adrenergic α1B: 61%
[3]; [6]
  Percentage inhibition of ligand binding, Adrenergic α2A: 11%

## CN1CCc2c(n(CC(O)c3ccncc3)c3ccc(Cl)cc23)C1 (single isomer, unassigned) [41b]
[1]; [4]
  Percentage inhibition of ligand binding, Adrenergic α2B: 50%
[2]; [5]
  Percentage inhibition of ligand binding, Adrenergic α1B: 50%
[3]; [6]
  Percentage inhibition of ligand binding, Adrenergic α2A: 8%

## COc1ccc(C(O)Cn2c3c(c4cc(C)ccc42)CN(C)CC3)cn1 (stereo not shown) [compound 51, 2-(2,8-dimethyl-1,2,3,4-tetrahydro-pyrido[4,3-b]indol-5-yl)-1-(6-methoxy-pyridin-3-yl)-ethanol]
[1]; [4]
  Percentage inhibition of ligand binding, Adrenergic α2B: 82%
[2]; [5]
  Percentage inhibition of ligand binding, Adrenergic α1B: 43%
[3]; [6]
  Percentage inhibition of ligand binding, Adrenergic α2A: 20%

## Cc1cnc2c(c1)c1c(n2CCc2cnccn2)CCN2CCCC12 (stereo not shown) [II-245]
[1]; [12]
  inhibition at 0.03 µM: 44%
[2]; [13]
  inhibition at 0.1 µM: 27%
[3]; [14]
  inhibition at 0.1 µM: 7%
